The values below come from paper PMC8400394, “Adsorption of Recombinant Human β-Defensin 2 and Two Mutants on Mesoporous Silica Nanoparticles and Its Effect against Clavibacter michiganensis subsp. michiganensis” (Nanomaterials, 2021).

Common to all, as to format: cell-based, Clavibacter michiganensis subsp. michiganensis
For assay [1], the system named is Cmm. In words: Determination of IC50 of the recombinant AMPs. The settings on record: Cmm in MHB, minimum concentration of AMP that inhibits 50% of the growth. As for the experimental part: (§1) Cmm was cultivated in Mueller-Hinton broth (MHB) at […] for 16 h at 180 rpm. Employing 0.5 mL of the previous culture, 50 mL of fresh MHB were inoculated. The culture was maintained under the conditions mentioned above until the OD600 reached 0.2–0.3. 9.5 mL of MHB agar prewarmed to 37 °C were added to 0.5 mL of the culture. It was homogenized and then poured onto a Petri dish containing MHB agar to form a uniform layer of 2 mm. Once the surface was dry, different volumes (5, 10 and 15 μL) of the defensins under study (50 μM) were added to the surface. The plates were incubated for 24 h at 28 °C, then the formed inhibition halos were measured. CH3COOH (acid acetic)10 mM pH 2.4 and Tris 50 mM pH 8.4 were used both as negative controls. The IC50 was determined based on that reported by Tay and Liu. This measurement was defined as the minimum concentration of AMP that is required to inhibit 50% of the growth of Cmm.

Assay [2] relates to Cmm. In words: Effect of pepsin on AMPs and MSN/AMPs complexes (growth of Cmm after protease treatment). The following applies: AMPs (1 mg/mL) treated with pepsin (1 mg/mL), 5:1 peptide:enzyme; then Cmm culture 28 °C, 24 h; CFU count; duplicate. As for the experimental part: After removing the supernatant and drying the MSN/AMP complexes, 200 µL of the pepsin (1 mg/mL) were added and incubated at 37 °C for 16 h under constant shaking. The microtubes were then centrifuged at 5000× g for 10 min at 4 °C. The resulting pellet was washed twice with deionized water and centrifuged at 5000× g for 10 min at 4 °C between each wash. MSN/AMPs complexes were resuspended in 3 mL of diluted Cmm culture and incubated at 28 °C for 24 h at 180 rpm. After the incubation period, serial dilutions were performed up to 1 × 10^6 of which 100 µL were taken and Petri dishes were poured with 30 mL MHB medium. The plates were incubated at 28 °C for 72 h and the colonies were counted, bacterial growth was expressed as CFU/mL. Controls were prepared with MSN (5 mg/mL) in PBS and AMPs (1 mg/mL) treated with protease (1 mg/mL) in a 5:1 ratio (peptide:enzyme). The experiments for this assay were performed by duplicate.

Assay [3] relates to Cmm. In words: Antimicrobial activity of AMPs by the plaque diffusion method. The settings on record: plaque diffusion on MHB agar with Cmm; 5, 10 and 15 μL of 50 μM; CH3COOH 10 mM pH 2.4 and Tris 50 mM pH 8.4; 24 h, 28 °C; triplicate. As for the experimental part:
as §1

Assay [4] deals with Cmm. In words: Antimicrobial activity of MSN/AMPs complexes in solid medium. The settings on record: plaque diffusion on MHB with Cmm; 5, 10, 15 µL; 24 h, 28 °C; MSN 5 mg/mL, AMPs 0.5 mg/mL; triplicate. As for the experimental part: The antimicrobial activity of the MSN/AMPs complexes was evaluated both in solid and liquid media. For the solid medium, the adsorption process was carried out as described in the previous section. The pellet was resuspended in PBS (1 mL). Afterwards, different volumes of the MSN/AMPs mixture were deposited onto Petri dishes with MHB medium and Cmm (see antimicrobial activity test section and IC50 determination). The plates were incubated for 24 h at 28 °C, the diameter of the inhibition halos was measured. MSN (5 mg/mL) and AMPs (0.5 mg/mL) were employed as controls. These experiments were performed by triplicates.

Regarding human β-defensin-2 [hβD2], the IC50 turned out to be 3.64 ± 0.33 µg/mL in the assay with Cmm [1] (AMP in CH3COOH 10 mM pH 2.4) and 3.61 ± 0.47 µg/mL in the assay with Cmm [1] (AMP in Tris 50 mM pH 8.4). Further, the “Cmm growth inhibition after pepsin treatment, AMPs without the mesoporous matrix” value in the assay with Cmm [2] came out at 99.98%. Besides, in the assay on Cmm [3], the “antimicrobial activity (inhibition halos)” value is “exhibited inhibition halos”. Further, the “antimicrobial activity in solid medium (inhibition halos)” value in the assay on Cmm [4] is reported as “greater inhibition than MNS/hβD2”.

By IC50 is commonly meant the concentration that gives 50% inhibition.
